{
  "source": "paper PMC5218480",
  "about": "(PLoS ONE, 2017)",
  "system": "MV-4-11 cells",
  "test": "Gene expression microarray analysis (Affymetrix PrimeView) and GSEA",
  "assay_type": "cell-based, human",
  "design": "RFU PODN (11730768_x_at) / Fold change /veh PODN (11730768_x_at) / RFU LINC00158 (11744669_a_at) / Fold change /veh LINC00158 (11744669_a_at) / RFU DUSP10 (11751237_a_at) / Fold change /veh DUSP10 (11751237_a_at) / RFU ID3 (11757404_x_at) / Fold change /veh ID3 (11757404_x_at) / RFU PLEKHG5 (11737974_s_at) / Fold change /veh PLEKHG5 (11737974_s_at) / RFU LRRC4B (11730491_at) / Fold change /veh LRRC4B (11730491_at) / RFU GIMAP4 (11747438_a_at) / Fold change /veh GIMAP4 (11747438_a_at) / RFU KRT8 (11758183_x_at) / Fold change /veh KRT8 (11758183_x_at) / RFU CNN1 (11734310_a_at) / Fold change /veh CNN1 (11734310_a_at) / RFU VPS37D (11726825_at) / Fold change /veh VPS37D (11726825_at) / RFU C10orf10 (11716522_x_at) / Fold change /veh C10orf10 (11716522_x_at) / RFU KIR2DL2 /// KIR2DL4 /// KIR2DL5A /// KIR2DL5B /// KIR2DS1 /// KIR2DS2 /// KIR2DS3 /// KIR2DS4 /// KIR3DL3 /// KIR3DL3 /// KIR3DS1 (11738374_at) / Fold change /veh KIR2DL2 /// KIR2DL4 /// KIR2DL5A /// KIR2DL5B /// KIR2DS1 /// KIR2DS2 /// KIR2DS3 /// KIR2DS4 /// KIR3DL3 /// KIR3DL3 /// KIR3DS1 (11738374_at) / RFU C1QL1 (11718748_at) / Fold change /veh C1QL1 (11718748_at) / RFU TMPRSS4 (11747572_a_at) / Fold change /veh TMPRSS4 (11747572_a_at) / RFU HAMP (11756126_x_at) / Fold change /veh HAMP (11756126_x_at) / RFU RNFT2 (11725882_a_at) / Fold change /veh RNFT2 (11725882_a_at) / RFU NR4A2 (11747474_a_at) / Fold change /veh NR4A2 (11747474_a_at) / RFU ABCC12 (11746883_a_at) / Fold change /veh ABCC12 (11746883_a_at) / RFU TMEM136 (11760407_x_at) / Fold change /veh TMEM136 (11760407_x_at) / RFU CLDN22 /// WWC2 (11732394_at) / Fold change /veh CLDN22 /// WWC2 (11732394_at) / RFU HLA-DPB1 (11760878_x_at) / Fold change /veh HLA-DPB1 (11760878_x_at) / RFU SPINT1 (11716480_a_at) / Fold change /veh SPINT1 (11716480_a_at) / RFU GAP43 (11754022_s_at) / Fold change /veh GAP43 (11754022_s_at) / RFU A4GNT (11735810_at) / Fold change /veh A4GNT (11735810_at) / RFU PRB3 (11715151_x_at) / Fold change /veh PRB3 (11715151_x_at) / RFU TUBB4B (11761932_at) / Fold change /veh TUBB4B (11761932_at) / RFU CAPN14 (11732068_a_at) / Fold change /veh CAPN14 (11732068_a_at) / RFU TMCC2 (11721928_a_at) / Fold change /veh TMCC2 (11721928_a_at) / RFU IRGQ (11745062_a_at) / Fold change /veh IRGQ (11745062_a_at) / RFU FAM174B (11720279_a_at) / Fold change /veh FAM174B (11720279_a_at) / RFU TMPRSS4 (11748680_a_at) / Fold change /veh TMPRSS4 (11748680_a_at) / RFU FAM212B (11763350_a_at) / Fold change /veh FAM212B (11763350_a_at) / RFU PLEKHG5 (11743358_a_at) / Fold change /veh PLEKHG5 (11743358_a_at) / RFU ZSCAN30 (11745921_a_at) / Fold change /veh ZSCAN30 (11745921_a_at) / RFU CMKLR1 (11741424_a_at) / Fold change /veh CMKLR1 (11741424_a_at) / RFU LOC101060620 /// MAPK8IP1 (11723275_at) / Fold change /veh LOC101060620 /// MAPK8IP1 (11723275_at) / RFU SPTSSB (11747773_x_at) / Fold change /veh SPTSSB (11747773_x_at) / RFU PRSS12 (11739890_at) / Fold change /veh PRSS12 (11739890_at) / RFU BIN1 (11741810_x_at) / Fold change /veh BIN1 (11741810_x_at) / RFU WNT11 (11732464_a_at) / Fold change /veh WNT11 (11732464_a_at) / RFU C10orf10 (11716521_a_at) / Fold change /veh C10orf10 (11716521_a_at) / RFU C5orf56 (11738089_at) / Fold change /veh C5orf56 (11738089_at) / RFU CYB561 (11721691_x_at) / Fold change /veh CYB561 (11721691_x_at) / RFU ANKRD19P (11752326_a_at) / Fold change /veh ANKRD19P (11752326_a_at) / RFU OR2T12 /// OR2T33 /// OR2T8 (11738714_s_at) / Fold change /veh OR2T12 /// OR2T33 /// OR2T8 (11738714_s_at) / RFU VCAN (11748164_a_at) / Fold change /veh VCAN (11748164_a_at) / RFU JSRP1 (11732532_at) / Fold change /veh JSRP1 (11732532_at) / RFU KRTAP10-11 (11738290_x_at) / Fold change /veh KRTAP10-11 (11738290_x_at) / RFU MYO3A (11730013_a_at) / Fold change /veh MYO3A (11730013_a_at) / RFU EBF3 (11725865_a_at) / Fold change /veh EBF3 (11725865_a_at) / RFU CAMK2N1 (11719241_x_at) / Fold change /veh CAMK2N1 (11719241_x_at) / RFU C5orf56 (11738088_a_at) / Fold change /veh C5orf56 (11738088_a_at) / RFU OLFML3 (11715873_a_at) / Fold change /veh OLFML3 (11715873_a_at) / RFU LOC100653217 /// NTM (11731650_a_at) / Fold change /veh LOC100653217 /// NTM (11731650_a_at) / RFU MAPK11 (11762145_a_at) / Fold change /veh MAPK11 (11762145_a_at) / RFU FIZ1 (11724087_x_at) / Fold change /veh FIZ1 (11724087_x_at) / RFU OASL (11726364_x_at) / Fold change /veh OASL (11726364_x_at) / RFU SOX15 (11748057_x_at) / Fold change /veh SOX15 (11748057_x_at) / RFU CD79A (11719716_a_at) / Fold change /veh CD79A (11719716_a_at) / RFU HIST1H1D (11736915_at) / Fold change /veh HIST1H1D (11736915_at) / RFU CASKIN2 (11723855_a_at) / Fold change /veh CASKIN2 (11723855_a_at) / RFU LOC730098 (11760151_x_at) / Fold change /veh LOC730098 (11760151_x_at) / RFU OR4N2 (11742367_at) / Fold change /veh OR4N2 (11742367_at) / RFU PRRT2 (11749266_a_at) / Fold change /veh PRRT2 (11749266_a_at) / RFU SNX32 (11753110_a_at) / Fold change /veh SNX32 (11753110_a_at) / RFU CDHR5 (11726645_a_at) / Fold change /veh CDHR5 (11726645_a_at) / RFU RCAN1 (11760418_a_at) / Fold change /veh RCAN1 (11760418_a_at) / RFU FAM167A (11723789_a_at) / Fold change /veh FAM167A (11723789_a_at) / RFU FAM26E (11764081_at) / Fold change /veh FAM26E (11764081_at) / RFU ISYNA1 (11749810_s_at) / Fold change /veh ISYNA1 (11749810_s_at) / RFU ACY1 (11761880_at) / Fold change /veh ACY1 (11761880_at) / RFU 11764098_at / Fold change /veh 11764098_at / RFU SAMD14 (11745864_x_at) / Fold change /veh SAMD14 (11745864_x_at) / RFU NPB (11741838_a_at) / Fold change /veh NPB (11741838_a_at) / RFU TMPRSS6 (11731388_a_at) / Fold change /veh TMPRSS6 (11731388_a_at) / RFU KRTAP10-2 (11738614_at) / Fold change /veh KRTAP10-2 (11738614_at) / RFU ARHGAP8 /// PRR5-ARHGAP8 (11727945_x_at) / Fold change /veh ARHGAP8 /// PRR5-ARHGAP8 (11727945_x_at) / RFU KRTAP5-7 /// NADSYN1 (11734609_at) / Fold change /veh KRTAP5-7 /// NADSYN1 (11734609_at) / RFU RASL12 (11751679_a_at) / Fold change /veh RASL12 (11751679_a_at) / RFU CDKN2B (11736163_a_at) / Fold change /veh CDKN2B (11736163_a_at) / RFU PRF1 (11729649_at) / Fold change /veh PRF1 (11729649_at) / RFU, ZNF638 /// ZNF638-IT1 / Fold change vs veh, ZNF638 /// ZNF638-IT1 / RFU, PANK3 / Fold change vs veh, PANK3 / RFU, SH3YL1 / Fold change vs veh, SH3YL1 / RFU, ZEB2 / Fold change vs veh, ZEB2 / RFU, NRIP1 / Fold change vs veh, NRIP1 / RFU, PTTG1IP / Fold change vs veh, PTTG1IP / RFU, CAPN2 / Fold change vs veh, CAPN2 / RFU, MED14 / Fold change vs veh, MED14 / RFU, SNORA58 / Fold change vs veh, SNORA58 / RFU, C1orf63 / Fold change vs veh, C1orf63 / RFU, LRRFIP1 / Fold change vs veh, LRRFIP1 / RFU, NDUFAF7 / Fold change vs veh, NDUFAF7 / RFU, SLC12A2 / Fold change vs veh, SLC12A2 / RFU, IBTK / Fold change vs veh, IBTK / RFU, ESF1 / Fold change vs veh, ESF1 / Fold change vs veh, TMEM50B / RFU, TAOK1 / Fold change vs veh, TAOK1 / RFU, ACBD3 / Fold change vs veh, ACBD3 / RFU, TMA16 / Fold change vs veh, TMA16 / RFU, RWDD3 / Fold change vs veh, RWDD3 / RFU, BCAT1 / Fold change vs veh, BCAT1 / RFU, EDEM3 / Fold change vs veh, EDEM3 / RFU, TMEM33 / Fold change vs veh, TMEM33 / RFU, WDR75 / Fold change vs veh, WDR75 / RFU, AHCTF1 / Fold change vs veh, AHCTF1 / RFU, TFRC / Fold change vs veh, TFRC / RFU, ZDHHC17 / Fold change vs veh, ZDHHC17 / RFU, NOM1 / Fold change vs veh, NOM1 / RFU, ARL8B / Fold change vs veh, ARL8B / RFU, ZBTB11 / Fold change vs veh, ZBTB11 / RFU, TAMM41 / Fold change vs veh, TAMM41 / RFU, KIAA1704 /// LOC100996395 / Fold change vs veh, KIAA1704 /// LOC100996395 / RFU, ING1 / Fold change vs veh, ING1 / RFU, TRMT61B / Fold change vs veh, TRMT61B / RFU, FUBP3 / Fold change vs veh, FUBP3 / RFU, TP53 / Fold change vs veh, TP53 / RFU, TNKS2 / Fold change vs veh, TNKS2 / RFU, ZFP14 / Fold change vs veh, ZFP14 / RFU, ACTR2 / Fold change vs veh, ACTR2 / RFU, PPP3R1 / Fold change vs veh, PPP3R1 / RFU, PIK3R1 / Fold change vs veh, PIK3R1 / RFU, HNRNPA1 / Fold change vs veh, HNRNPA1 / RFU, RNF170 / Fold change vs veh, RNF170 / RFU, ZNF28 / Fold change vs veh, ZNF28 / RFU, RNGTT / Fold change vs veh, RNGTT / RFU, OGT / Fold change vs veh, OGT / RFU, BRD1 / Fold change vs veh, BRD1 / RFU, MARS / Fold change vs veh, MARS / RFU, ZNF655 / Fold change vs veh, ZNF655 / RFU, FAHD1 / Fold change vs veh, FAHD1 / RFU, BDP1 / Fold change vs veh, BDP1 / RFU, LRRCC1 / Fold change vs veh, LRRCC1 / RFU, ARID1A / Fold change vs veh, ARID1A / RFU, ZNF146 / Fold change vs veh, ZNF146 / RFU, ZNF330 / Fold change vs veh, ZNF330 / RFU, GPN3 / Fold change vs veh, GPN3 / RFU, C9orf123 / Fold change vs veh, C9orf123 / RFU, N4BP2L2 / Fold change vs veh, N4BP2L2 / RFU, ARFIP1 / Fold change vs veh, ARFIP1 / RFU, FAM179B / Fold change vs veh, FAM179B / RFU, BCL10 / Fold change vs veh, BCL10 / RFU, UHRF1BP1L / Fold change vs veh, UHRF1BP1L / RFU, BET1 / Fold change vs veh, BET1 / RFU, CNOT2 / Fold change vs veh, CNOT2 / RFU, ZNF268 / Fold change vs veh, ZNF268 / Fold change vs veh, ZNF507 / RFU, DGCR2 / Fold change vs veh, DGCR2 / RFU, WDSUB1 / Fold change vs veh, WDSUB1 / Fold change vs veh, HSP90B1 /// MIR3652 / RFU, ADSS / Fold change vs veh, ADSS / RFU, GK / Fold change vs veh, GK / RFU, ZNF148 / Fold change vs veh, ZNF148 / RFU, TAF9 / Fold change vs veh, TAF9 / RFU, SLC1A5 / Fold change vs veh, SLC1A5 / RFU, SLMO2 / Fold change vs veh, SLMO2 / RFU, ABCC4 / Fold change vs veh, ABCC4 / RFU, LOC101060439 /// RAP1B / Fold change vs veh, LOC101060439 /// RAP1B / RFU, RFX7 / Fold change vs veh, RFX7 / RFU, GTPBP10 / Fold change vs veh, GTPBP10 / RFU, CNEP1R1 / Fold change vs veh, CNEP1R1 / RFU, BIVM-ERCC5 /// ERCC5 / Fold change vs veh, BIVM-ERCC5 /// ERCC5 / RFU, ILF3 / Fold change vs veh, ILF3 / RFU 11762660_at / Fold change /veh 11762660_at / RFU VCAN (11757783_s_at) / Fold change /veh VCAN (11757783_s_at) / RFU DDX43 (11728927_at) / Fold change /veh DDX43 (11728927_at) / RFU KRT8 (11758188_x_at) / Fold change /veh KRT8 (11758188_x_at) / RFU NKD1 (11759106_at) / Fold change /veh NKD1 (11759106_at) / RFU SRD5A1 (11742802_a_at) / Fold change /veh SRD5A1 (11742802_a_at) / RFU TPSAB1 /// TPSB2 (11721975_s_at) / Fold change /veh TPSAB1 /// TPSB2 (11721975_s_at) / RFU GSTM3 (11746129_a_at) / Fold change /veh GSTM3 (11746129_a_at) / RFU IL23R (11737362_x_at) / Fold change /veh IL23R (11737362_x_at) / RFU TMEM51 (11727254_a_at) / Fold change /veh TMEM51 (11727254_a_at) / RFU PIWIL2 (11732686_x_at) / Fold change /veh PIWIL2 (11732686_x_at) / RFU ORM1 (11744905_x_at) / Fold change /veh ORM1 (11744905_x_at) / RFU CCDC152 (11743942_at) / Fold change /veh CCDC152 (11743942_at) / RFU ECM1 (11717891_a_at) / Fold change /veh ECM1 (11717891_a_at) / RFU IL23R (11748794_a_at) / Fold change /veh IL23R (11748794_a_at) / RFU TNFAIP8L3 (11732012_x_at) / Fold change /veh TNFAIP8L3 (11732012_x_at) / RFU MBOAT4 (11741988_at) / Fold change /veh MBOAT4 (11741988_at) / RFU 11764193_at / Fold change /veh 11764193_at / RFU TMEM53 (11763286_at) / Fold change /veh TMEM53 (11763286_at) / RFU MAGEB2 (11727129_at) / Fold change /veh MAGEB2 (11727129_at) / RFU TMEM200A (11744735_a_at) / Fold change /veh TMEM200A (11744735_a_at) / RFU CCDC152 (11751479_a_at) / Fold change /veh CCDC152 (11751479_a_at) / RFU FAM211A (11726209_a_at) / Fold change /veh FAM211A (11726209_a_at) / RFU RGS16 (11746705_a_at) / Fold change /veh RGS16 (11746705_a_at) / RFU VCAN (11755009_s_at) / Fold change /veh VCAN (11755009_s_at) / RFU RHOB (11743442_s_at) / Fold change /veh RHOB (11743442_s_at) / RFU RGS16 (11720943_a_at) / Fold change /veh RGS16 (11720943_a_at) / RFU RGS16 (11720944_at) / Fold change /veh RGS16 (11720944_at) / RFU, VPS4B / Fold change vs veh, VPS4B / RFU, CREB1 / Fold change vs veh, CREB1 / RFU, DNAJC13 / Fold change vs veh, DNAJC13 / RFU, GNAQ / Fold change vs veh, GNAQ / RFU, CDK5R1 / Fold change vs veh, CDK5R1 / RFU, ZRANB3 / Fold change vs veh, ZRANB3 / RFU, CUL4A / Fold change vs veh, CUL4A / RFU, CCNY / Fold change vs veh, CCNY / RFU, UFL1 / Fold change vs veh, UFL1 / RFU, COG3 / Fold change vs veh, COG3 / RFU, DIAPH2 / Fold change vs veh, DIAPH2 / RFU, SKA2 / Fold change vs veh, SKA2 / RFU, AFF3 / Fold change vs veh, AFF3 / RFU, LMF1 / Fold change vs veh, LMF1 / RFU, IPO11 / Fold change vs veh, IPO11 / RFU, DFFB / Fold change vs veh, DFFB / RFU, FOXP1 / Fold change vs veh, FOXP1 / RFU, CARD8 / Fold change vs veh, CARD8 / RFU, STRN3 / Fold change vs veh, STRN3 / RFU, ADK / Fold change vs veh, ADK / RFU, RASSF2 / Fold change vs veh, RASSF2 / RFU, WIPF1 / Fold change vs veh, WIPF1 / RFU, LARP1B / Fold change vs veh, LARP1B / RFU, RASA1 / Fold change vs veh, RASA1 / RFU, RB1 / Fold change vs veh, RB1 / RFU, PPFIA1 / Fold change vs veh, PPFIA1 / RFU, MAT2A / Fold change vs veh, MAT2A / RFU, CCT5 / Fold change vs veh, CCT5 / RFU, WDR92 / Fold change vs veh, WDR92 / RFU, CUX1 / Fold change vs veh, CUX1 / RFU, TTC7A / Fold change vs veh, TTC7A / RFU, TMEM135 / Fold change vs veh, TMEM135 / RFU, DEPTOR / Fold change vs veh, DEPTOR / RFU, CPM / Fold change vs veh, CPM / RFU, DNAJB6 / Fold change vs veh, DNAJB6 / RFU, CACNA2D3 / Fold change vs veh, CACNA2D3 / RFU, DTX4 / Fold change vs veh, DTX4 / RFU, TFCP2 / Fold change vs veh, TFCP2 / RFU, GMCL1 /// GMCL1P1 / Fold change vs veh, GMCL1 /// GMCL1P1 / RFU, AEBP2 / Fold change vs veh, AEBP2 / RFU, SNHG1 /// SNORD22 /// SNORD25 /// SNORD26 /// SNORD27 /// SNORD28 /// SNORD29 /// SNORD31 / Fold change vs veh, SNHG1 /// SNORD22 /// SNORD25 /// SNORD26 /// SNORD27 /// SNORD28 /// SNORD29 /// SNORD31 / Fold change (Aza/veh), C12orf56 (ProbeSet 11735607_a_at) / Fold change (ACY-1035/veh), C12orf56 (ProbeSet 11735607_a_at) / Fold change (Aza/veh), FGFR1OP (ProbeSet 11751329_s_at) / Fold change (ACY-1035/veh), FGFR1OP (ProbeSet 11751329_s_at) / Fold change (Aza/veh), VPS36 (ProbeSet 11739960_a_at) / Fold change (ACY-1035/veh), VPS36 (ProbeSet 11739960_a_at) / RFU SYPL1 (11715823_x_at) / Fold change /veh SYPL1 (11715823_x_at) / RFU IGFBP7 (11715501_s_at) / Fold change /veh IGFBP7 (11715501_s_at) / RFU REEP3 (11722064_at) / Fold change /veh REEP3 (11722064_at) / RFU IGLL1 (11728026_x_at) / Fold change /veh IGLL1 (11728026_x_at): dose or concentration left out as unconfirmed",
  "conditions": "ProbeSet 11759094_a_at; LIST D",
  "data": [
    {"smiles": "Nc1ccc(-c2cccs2)cc1NC(=O)c1ccc2c(c1)cc(C1CC1)n2CCN1CCOCC1", "note": "[ACY-1035]", "values": [
      {"measurement": "Fold change vs veh, GNAQ", "value": 0.89}
    ]}
  ]
}
